Reference: patent US20230220206A1, “REJUVENATING AGENTS FOR ASPHALT RECYCLING” (BASF SE, priority 2020, published 2023)
Like-named read-outs stand apart in the source and are kept apart here.

How the values were obtained:
[1] = MSCR test, percentage elastic recovery; type: physicochemical; conditions: bitumen 20/30 + 5% compound
[2] = Softening point of rejuvenated aged bitumen; type: physicochemical; conditions: aged bitumen 50/70 BP + 5% compound
[3] = type: physicochemical; conditions: aged bitumen 50/70 BP + 5% compound
[4] = MSCR elastic recovery of rejuvenated aged bitumen; type: physicochemical; conditions: aged bitumen 50/70 BP + 5% compound
[5] = Softening point of rejuvenated aged bitumen; type: physicochemical; conditions: aged bitumen 50/70 PCK Schwedt + 5% compound
[6] = type: physicochemical; conditions: aged bitumen 50/70 PCK Schwedt + 5% compound
[7] = MSCR elastic recovery of rejuvenated aged bitumen; type: physicochemical; conditions: aged bitumen 50/70 PCK Schwedt + 5% compound
[8] = Softening point of rejuvenated RAP bitumen; type: physicochemical; conditions: bitumen extracted from RAP + 5% compound
[9] = type: physicochemical; conditions: bitumen extracted from RAP + 5% compound
[10] = MSCR elastic recovery of rejuvenated RAP bitumen; type: physicochemical; conditions: bitumen extracted from RAP + 5% compound
[11] = Low temperature performance, bending beam rheometer (BBR) at −16° C.; type: physicochemical; conditions: bitumen 20/30 + 5% compound
Method: (§1) Different bitumen samples were rejuvenated as in Example 1, and the BBR values S (flexural creep stiffness) and m […] were evaluated at −16° C. The results were compared to the not rejuvenated bitumen sample as well as to the bitumen rejuvenated with the benchmark RheoFalt® HP-AM (Comp. 1.3).

[12] = Loss tangent from DSR frequency sweep at 60° C.; type: physicochemical
Excerpt: In addition, it could be shown that additives according to the present invention perform most of the times better than the common benchmarks according to the standard testing techniques for the low, mid and high temperature range. What cannot be extracted from these measurements however is an indication of the working mechanism.

[13] = Softening point of rejuvenated polymer-modified bitumen; type: physicochemical; conditions: Olexobit 45 + 5% compound
[14] = type: physicochemical; conditions: Olexobit 45 + 5% compound
[15] = BBR of rejuvenated polymer-modified bitumen; type: physicochemical; conditions: Olexobit 45 + 5% compound
Method: as §1

[16] = Force ductility of rejuvenated polymer-modified bitumen; type: physicochemical; conditions: Olexobit 45 + 5% compound
Excerpt: (§2) Herewith, it will be shown that the positive effects of the here claimed rejuvenating agents can also be applied to PmB, in this case Olexobit 45. Olexobit 45 was therefore rejuvenated according to the procedure of Example 1.

[17] = Ageing index (RTFOT ageing) of rejuvenated polymer-modified bitumen; type: physicochemical; conditions: Olexobit 45 + 5% compound; viscosity after ageing divided by viscosity before ageing
Excerpt: as §2

[18] = bitumen 20/30 + 5% compound
[19] = Softening point ring & ball of rejuvenated bitumen; conditions: bitumen 20/30 rejuvenated with 5% of the compound, 180° C., 30 minutes

Substance: Polypropylenglycol bis glycidylether
- MSCR % Rec. (0.1 kPa) ([1]; 0.1 kPa): 8%
- MSCR % Rec. (1.6 kPa) ([1]; 1.6 kPa): 2%
- MSCR % Rec. (3.2 kPa) ([1]; 3.2 kPa): 1%
- SP [° C.] [2]: 54.0 °C
- η(135° C.) [mPas] [3]: 800 mPas
- MSCR % Rec. (0.1 kPa) ([4]; 0.1 kPa): 7%
- MSCR % Rec. (1.6 kPa) ([4]; 1.6 kPa): 3%
- MSCR % Rec. (3.2 kPa) ([4]; 3.2 kPa): 1%
- SP [° C.] [5]: 52.5 °C
- η(135° C.) [mPas] [6]: 800 mPas
- MSCR % Rec. (0.1 kPa) ([7]; 0.1 kPa): 5%
- MSCR % Rec. (1.6 kPa) ([7]; 1.6 kPa): 1%
- MSCR % Rec. (3.2 kPa) ([7]; 3.2 kPa): 0%
- SP [° C.] [8]: 57.0 °C
- η(135° C.) [mPas] [9]: 1,100 mPas
- MSCR % Rec. (0.1 kPa) ([10]; 0.1 kPa): 10%
- MSCR % Rec. (1.6 kPa) ([10]; 1.6 kPa): 6%
- MSCR % Rec. (3.2 kPa) ([10]; 3.2 kPa): 3%
- S-value [MPa] (flexural creep stiffness) [11]: 105 MPa
- m-value [11]: 0.43
- tan δ ([12]; aged bitumen 50/70 BP + 5% compound, lowest frequency): 75
- tan δ ([12]; aged bitumen 50/70 PCK Schwedt + 5% compound, lowest frequency): 105
- tan δ ([12]; bitumen 20/30 + 5% compound, lowest frequency (0.01 rad/s)): 55
- tan δ ([12]; bitumen extracted from RAP + 5% compound, lowest frequency): 45
- SP [° C.] [13]: 48.0 °C
- η(135° C.) [mPas] [14]: 650 mPas
- BBR S-value [MPa] [15]: 120 MPa
- BBR m-value [15]: 0.39
- Force Ductility Fmax [N] [16]: 14 N
- Force Ductility W [J/cm^2] [16]: 1.1 J/cm^2
- AI (ageing index) [17]: 2.2
- η(135° C.) [mPas] [18]: 900 mPas
- SP [° C.] (softening point) [19]: 50.0 °C
